According to ChEMBL document CHEMBL1140432, “Synthesis and biological evaluation of a novel series of "ortho-nitrated" inhibitors of catechol-O-methyltransferase” (J Med Chem, 2005):

Columns and labels:
[1] = molecular target: T1, Catechol O-methyltransferase (Rattus norvegicus, UniProt P22734); experiment: Inhibitory activity against COMT in rat liver
T1 sequence (P22734 whole entry): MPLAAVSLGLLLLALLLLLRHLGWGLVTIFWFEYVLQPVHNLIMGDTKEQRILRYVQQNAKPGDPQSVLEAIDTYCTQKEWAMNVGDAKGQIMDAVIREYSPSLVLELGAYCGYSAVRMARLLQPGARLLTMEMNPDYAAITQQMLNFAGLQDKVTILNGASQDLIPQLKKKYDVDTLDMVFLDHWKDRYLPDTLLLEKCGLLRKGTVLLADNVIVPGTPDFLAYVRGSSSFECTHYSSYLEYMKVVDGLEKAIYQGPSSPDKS

[2] = molecular target: T1, Catechol O-methyltransferase; experiment: Inhibitory activity against COMT in rat brain; assay type: tissue-based

Row | Structure (SMILES) | IC50 [1] [nM] | IC50 [2] [nM]
1 | O=C(Cc1ccccc1)c1ccc(O)c(O)c1[N+](=O)[O-] | 130 | 3
2 | O=C(CCc1ccccc1)c1ccc(O)c(O)c1[N+](=O)[O-] | 2000 | 4
3 | O=C(CCCc1ccccc1)c1ccc(O)c(O)c1[N+](=O)[O-] | 130 | 4
4 | O=C(CCCCc1ccccc1)c1ccc(O)c(O)c1[N+](=O)[O-] | 110 | 4
